For the data set the following is noted: 101.3 kPa, Liquid, Vibrating tube method.

Numbers after ± are expanded uncertainties.

As a reminder, the mass density is the mass of a sample divided by its volume. With `CCC[n+]1ccn(C)c1.[Br-]` [1-methyl-3-propylimidazolium bromide], the mass density (323.15 K) is reported as 1317.74 ± 2.5 kg/m3; the mass density (333.15 K) is 1310.86 ± 2.5 kg/m3; the mass density (343.15 K) is 1304.04 ± 2.4 kg/m3; the mass density (353.15 K) is 1297.27 ± 2.4 kg/m3; the mass density (363.15 K) stood at 1290.33 ± 2.4 kg/m3.

Source of the values: the NIST ThermoML archive (doi:10.1016/j.jct.2018.09.023).
